Entries after “also recorded” stand apart in the source; their conditions may differ. Like-named read-outs stand apart in the source and are kept apart here.
Tests used:
rat GABABR2 (rat) [1] = target: rat GABABR2 (rat) (UniProt O88871); assay: cell-based or functional assay
rat GABABR2 (rat) [2] = target: rat GABABR2 (rat) (UniProt O88871); assay: cell-based or functional assay; remark: listed apart in the source
GABABR1 = GABABR1 (Rattus norvegicus, UniProt Q9Z0U4); assay: Radioligand binding, [3H]-CGP54626, membranes of COS-7 or HEK293 cells expressing GABABR1; settings: for pKi: Displacement of [3H]-CGP54626 from COS-7 cells expressing GABABR1
GABABR1, sequence (Q9Z0U4 1-844 isoform Q9Z0U4-3): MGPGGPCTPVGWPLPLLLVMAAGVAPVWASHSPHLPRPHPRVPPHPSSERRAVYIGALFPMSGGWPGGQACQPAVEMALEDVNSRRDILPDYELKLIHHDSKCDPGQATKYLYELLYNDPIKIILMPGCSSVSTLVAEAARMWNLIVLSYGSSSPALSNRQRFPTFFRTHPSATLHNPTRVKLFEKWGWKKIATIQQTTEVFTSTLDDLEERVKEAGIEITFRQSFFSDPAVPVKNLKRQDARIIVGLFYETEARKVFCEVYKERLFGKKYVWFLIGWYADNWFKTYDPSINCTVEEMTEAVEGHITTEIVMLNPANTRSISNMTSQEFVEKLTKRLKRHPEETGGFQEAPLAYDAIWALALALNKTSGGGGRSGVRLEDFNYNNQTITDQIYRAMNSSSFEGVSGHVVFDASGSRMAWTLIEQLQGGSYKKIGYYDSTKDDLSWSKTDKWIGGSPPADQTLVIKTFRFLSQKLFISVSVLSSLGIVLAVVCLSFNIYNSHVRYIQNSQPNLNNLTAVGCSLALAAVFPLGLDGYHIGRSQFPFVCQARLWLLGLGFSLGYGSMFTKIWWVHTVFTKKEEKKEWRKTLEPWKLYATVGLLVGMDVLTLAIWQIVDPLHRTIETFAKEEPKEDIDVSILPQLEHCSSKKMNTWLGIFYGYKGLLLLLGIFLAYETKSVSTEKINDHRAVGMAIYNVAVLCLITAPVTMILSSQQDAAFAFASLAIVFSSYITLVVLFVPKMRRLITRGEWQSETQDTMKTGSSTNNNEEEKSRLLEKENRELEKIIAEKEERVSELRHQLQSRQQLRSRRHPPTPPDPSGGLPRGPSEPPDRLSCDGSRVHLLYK
Protocol: (§1) Transfected cells from culture flasks were scraped into 5 mL of Tris-HCl, 5 mM EDTA, pH 7.5, and lysed by sonication. The cell lysates were centrifuged at 1000 rpm for 5 min. at 4° C., and the supernatant was centrifuged at 30,000×g for 20 min. at 4° C. The pellet was suspended in binding buffer (50 mM Tris-HCl, 2.5 mM CaCl2 at pH 7.5 supplemented with 0.1% BSA, 2 μg/mL aprotinin, 0.5 mg/mL leupeptin, and 10 μg/mL phosphoramidon). […] In equilibrium saturation binding assays membrane preparations were incubated in the presence of increasing concentrations of labeled compound. […] Binding reaction mixtures were incubated for 1 hr at 30° C., and the reaction was stopped by filtration through GF/B filters treated with 0.5% polyethyleneimine, using a cell harvester. […] Data were analyzed by a computerized non-linear regression program. Non-specific binding was defined as the amount of radioactivity remaining after incubation of membrane protein in the presence of excess unlabeled compound. Protein concentration may be measured by the Bradford method using Bio-Rad Reagent, with bovine serum albumin as a standard.

GABABR2 = target: T1, GABABR2 (Rattus norvegicus, UniProt O88871); assay: Radioligand binding, membranes of HEK293 or COS-7 cells expressing GABABR2
T1 sequence (O88871 41-940): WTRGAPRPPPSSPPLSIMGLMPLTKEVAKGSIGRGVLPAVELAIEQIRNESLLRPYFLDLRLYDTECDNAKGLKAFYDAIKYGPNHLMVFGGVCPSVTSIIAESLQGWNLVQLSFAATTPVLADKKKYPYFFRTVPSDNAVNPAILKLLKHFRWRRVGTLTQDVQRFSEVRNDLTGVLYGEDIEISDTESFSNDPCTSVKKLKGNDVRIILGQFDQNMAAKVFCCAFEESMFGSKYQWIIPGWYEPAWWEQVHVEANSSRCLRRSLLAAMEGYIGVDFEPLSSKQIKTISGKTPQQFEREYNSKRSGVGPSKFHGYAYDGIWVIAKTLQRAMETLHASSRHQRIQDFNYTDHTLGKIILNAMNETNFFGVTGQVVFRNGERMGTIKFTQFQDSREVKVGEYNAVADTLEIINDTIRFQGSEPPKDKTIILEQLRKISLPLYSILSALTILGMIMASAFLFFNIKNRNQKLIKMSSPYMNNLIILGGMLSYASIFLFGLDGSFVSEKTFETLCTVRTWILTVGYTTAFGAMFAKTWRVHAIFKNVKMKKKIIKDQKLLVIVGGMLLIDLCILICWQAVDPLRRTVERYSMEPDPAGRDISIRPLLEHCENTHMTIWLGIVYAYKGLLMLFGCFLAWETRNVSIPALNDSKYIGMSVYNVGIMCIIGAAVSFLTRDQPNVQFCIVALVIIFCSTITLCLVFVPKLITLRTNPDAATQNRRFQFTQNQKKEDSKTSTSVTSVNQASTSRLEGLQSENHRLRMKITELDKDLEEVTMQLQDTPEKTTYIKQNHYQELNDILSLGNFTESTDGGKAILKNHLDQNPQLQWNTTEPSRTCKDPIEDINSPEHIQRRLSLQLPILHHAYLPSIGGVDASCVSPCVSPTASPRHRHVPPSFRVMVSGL
Protocol: as §1

GABABR1b/GABABR2 [3] = target: T2, GABABR1b/GABABR2 (Rattus norvegicus, UniProt Q9Z0U4); assay: GIRK currents in HEK-293 cells transiently transfected with GABABR1b/GABABR2 + GIRKs (whole-cell patch clamp); format: cell-based; parameters: ligated to a PCR fragment containing the missing base pairs to obtain the full length clone; expressed in transfected cells; settings: HEK-293 doubly transfected cells; CGP55845 at 1 μM, Ba++ 100 μM
T2 sequence (Q9Z0U4 1-844 isoform Q9Z0U4-3, one chain of several): as the sequence (Q9Z0U4 1-844 isoform Q9Z0U4-3) above
Protocol: The ability of the rat GABABR1 and GABABR2 genes to activate GIRK currents in mammalian cells was investigated by transient transfection of HEK-293 cells followed by voltage clamp analysis of currents. HEK-293 cells were maintained in Dulbecco's modified Eagle medium (DMEM) plus 10% (v/v) bovine calf serum, 2% L-glutamine, 50 U/ml penicillin, and 50 μg/ml streptomycin and were incubated at 37° C. in a humidified 5% CO2 atmosphere. Cells were harvested twice each week by treatment with 0.25% trypsin/1 mM EDTA in Hank's Salts and re-seeded at 20% of their original density either into 75 cm^2 flasks (for passaging) or into 35 mm tissue culture dishes (for transfection and electrophysiology experiments).
HEK-293 cells, 40%-80% confluent, were co-transfected with various combinations of 0.6 ug each of the following plasmids: pGreen Lantern-1 (Gibco/BRL, Gaithersburg, Md.), human GIRK1 (JS1800), human GIRK4 (JS1741), rat GABABR1b (BO58), and rat GABABR2 (BO55). Cells were transiently transfected using the Superfect Transfection Reagent from Qiagen (Valencia, Calif.) according to the manufacturer's instructions. Briefly, 3 μg total plasmid DNA were incubated with 22.5 μl Superfect Reagent in 100 μl serum-free DMEM for 5-10 minutes at room temperature. After addition of 600 μl complete DMEM, the DNA/Superfect mixture was transferred to cells growing in 35 mm dishes coated with poly-D-lysine and incubated for 2-4 hours at 37° C. in a 5% CO2 incubator. Subsequently, the dishes were washed once with phosphate-buffered saline and 2 ml complete DMEM was added. Cells were incubated for 24-72 hours at 37° C. before performing electrophysiological measurements.
The whole-cell configuration of the patch-clamp technique was used with glass pipettes having resistances of 2-4 MΩ when filled with the pipette solution. […] GIRK currents were recorded in elevated K^+ solution containing 25 mM K^+ and a correspondingly lower concentration of Na^+. Voltage clamp recordings were made with an EPC-9 amplifier using Pulse+PulseFit software (HEKA Elektronik). Series resistances were kept below 10 Mohm and no attempt was made to provide series resistance compensation. Currents were low-pass filtered at 1 kHz and digitized at a rate of 5 kHz. Unless otherwise noted, experiments were performed at room temperature on cells voltage clamped at a holding potential of −70 mV. […] The time to complete solution exchange was about 100 ms. The bath was constantly perfused at a low rate with control solution.

rat GABABR1/rat GABABR2 = rat GABABR1/rat GABABR2 (Rattus norvegicus, UniProt Q9Z0U4); assay: Microphysiometry (extracellular acidification) in CHO cells co-expressing rat GABABR1/rat GABABR2; settings: 100 nM CGP55845, pretreatment with PTX
rat GABABR1/rat GABABR2, sequence (Q9Z0U4 1-844 isoform Q9Z0U4-3, one chain of several): as the sequence (Q9Z0U4 1-844 isoform Q9Z0U4-3) above
Protocol: GABABR1, GABABR2 or the combination, were transiently expressed in CHO-K1 cells by liposome mediated transfection according to the manufacturer's recommendations (“LipofectAMINE”, GibcoBRL, Bethesda, Md.), and maintained in Ham's F-12 medium with 10% bovine serum. […] The recording paradigm consisted of a 100 ml/min flow rate and a 30 s flow interruption during which the rate measurement was taken. Challenges involved an 80 s drug exposure just prior to the first post-challenge rate measurement being taken, followed by two additional pump cycles. Acidification rates reported are expressed as a percentage increase of the peak response over the baseline rate observed just prior to challenge.

GABABR1b/GABABR2 [4] = target: T2, GABABR1b/GABABR2; assay: GIRK currents in Xenopus oocytes expressing GABABR1b/GABABR2 + GIRKs (voltage clamp); format: cell-based; parameters: ligated to a PCR fragment containing the missing base pairs to obtain the full length clone; linearized DNA plasmids containing the complete coding region of the gene; expressed in transfected cells; host or cells: Xenopus laevis oocytes, mRNA injection; settings: for pKB: GABABR1 + GABABR2, oocytes, antagonist, measured using GABA as agonist, n = 4-6 oocytes; for Shift of the GABA concentration-response curve: CGP55845 at 50 nM, CGP54626 at 5 μM, FIG. 15B
Protocol: Human heart cDNA was used as template together with the primers
Dual electrode voltage clamp (“GeneClamp”, Axon Instruments Inc., Foster City, Calif.) is performed using 3 M KCl-filled glass microelectrodes having resistances of 1-3 Mohms. […] Experiments are carried out at room temperature.
Fits were made with a Marquardt-Levenberg non-linear least-squares curve fitting algorithm.

[5] = aged rats; cited from earlier work
[6] = rhesus monkeys; cited from earlier work
[7] = rat, in vivo; cited from earlier work
GABA receptors = settings: in vivo; cited from earlier work
GABABR1/R2 = GABABR1/R2 (Rattus norvegicus, UniProt Q9Z0U4); assay: Radioligand binding, membranes from cells co-transfected with GABABR1/R2
GABABR1/R2, sequence (Q9Z0U4 1-844 isoform Q9Z0U4-3, one chain of several): as the sequence (Q9Z0U4 1-844 isoform Q9Z0U4-3) above
Protocol: as §1

Compound: rat GABABR1b (from UniProt Q9Z0U4 164-960) (receptor)
- Magnitude of GIRK currents stimulated by GABA, HEK-293, mean (pA) (rat GABABR2 (rat) [1]): 470 pA
- Magnitude of GIRK currents stimulated by GABA, oocytes, mean (nA) (rat GABABR2 (rat) [1]): 832 nA
- Magnitude of GIRK currents stimulated by GABA, HEK-293, mean (pA) (rat GABABR2 (rat) [2]): 658 pA
- Magnitude of GIRK currents stimulated by GABA, oocytes, mean (nA) (rat GABABR2 (rat) [2]): 1400 nA
- agonist-evoked extracellular acidification rate, microphysiometer, co-transfected CHO cells (rat GABABR2 (rat) [2]): 9 fold

Compound: C[C@H](NC[C@H](O)CP(=O)(O)CC1CCCCC1)c1ccc(Cl)c(Cl)c1 [[^3H]-CGP54626]
- Labeling of membranes by radioligand (GABABR1; HEK293 or COS-7 cells expressing GABABR1): labeled
- Labeling of membranes by radioligand (GABABR2): not those expressing GABABR2

Compound: [Ba+2] [Ba^++]
- Block of GABA-elicited currents (GABABR1b/GABABR2 [3]): completely blocked

Compound: pertussis toxin
- Block of baclofen-stimulated acidification response (rat GABABR1/rat GABABR2): blocked
- Effect on GABA-stimulated currents (GABABR1b/GABABR2 [4]; oocytes injected with pertussis toxin 2 ng/oocyte 6 h before voltage clamping): abolished

Compound: CCCCP(=O)(O)CCCN [CGP36742]
- Learning performance [5]: improve learning performance
- Performance in conditioned spatial color task [6]: improve

Compound: NCC(CC(=O)O)c1ccc(Cl)cc1 (stereo not drawn) [baclofen]
- Reinforcing effects of cocaine [7]: attenuate the reinforcing effects of cocaine

Compound: rat GABABR1a (from UniProt Q9Z0U4 20-960) (receptor)
- K+ (GIRK) currents in response to 100 µM GABA, HEK-293 cells (rat GABABR2 (rat) [2]): 1050 pA

Compound: NCC(CP(=O)(O)O)c1ccc(Cl)cc1 (stereo not drawn) [phaclofen]
- Dopamine release in the ventral pallidum (GABA receptors): increased dopamine release

Compound: C[C@H](NC[C@H](O)CP(=O)(O)Cc1ccccc1)c1ccc(Cl)c(Cl)c1 [CGP55845]
- pKi (GABABR1): 8.7
- Block of GABA-elicited currents (GABABR1b/GABABR2 [3]): completely blocked; also recorded: abolished
- Block of baclofen-stimulated acidification response (rat GABABR1/rat GABABR2): blocked
- pKB (GABABR1b/GABABR2 [4]): 8.60
- Block of currents stimulated by GABA (GABABR1b/GABABR2 [4]; oocytes, CGP55845 1 μM, reversible): completely blocked
- Shift of the GABA concentration-response curve (GABABR1b/GABABR2 [4]; oocytes): Right-ward shifts
- Binding profile compared with GABABR1 alone (GABABR1/R2): not different from those transfected with GABABR1 alone

Compound: C[C@H](NC[C@H](O)CP(=O)(O)CC1CCCCC1)c1ccc(Cl)c(Cl)c1 [CGP54626]
- pKi (GABABR1): 8.95
- pKB (GABABR1b/GABABR2 [4]): 7.48
- Shift of the GABA concentration-response curve (GABABR1b/GABABR2 [4]; oocytes): Right-ward shifts
- Binding profile compared with GABABR1 alone (GABABR1/R2): not different from those transfected with GABABR1 alone

Compound: CC1(C)CO[C@@H](CC(=O)O)CN1 [SCH-50911]
- Binding profile compared with GABABR1 alone (GABABR1/R2): not different from those transfected with GABABR1 alone
